The text below walks through data of patent US8263567B2, “Treatment of hyperproliferative conditions of body surfaces” (Valderm APS, priority 2001, dated 2012).

The structures appear in SMILES notation.

The test system of one data set is DNA Synthesis. Particulars: grade and speed (rapid/slow); cited from earlier work.
For another data set, the system named is RNA Synthesis. As to conditions: grade and speed (rapid/slow); cited from earlier work.
The conditions of data set [1]: cited from earlier work.
A further data set has as its system psoriasis vulgaris. Nature of the data set: Clinical trial, topical therapy of psoriasis vulgaris (Examples 11-16). The format is in vivo, human. How it is done:
A patient having dermal manifestations of psoriasis vulgaris was selected for therapy using the invention. Valrubicin was prepared as a solution (ref ex, 5) at a concentration of 2% (weight/weight) and was applied to the affected skin once daily. The patient was monitored for improvement in their manifestations of psoriasis. […] A patient having dermal manifestations of psoriasis vulgaris was selected for therapy using the invention. Valrubicin was prepared as a solution (ref ex. 8) at a concentration of 0.5% (weight/weight) and was applied to the affected skin once daily. The patient was monitored for improvement in their manifestations of psoriasis. […] A patient having dermal manifestations of psoriasis vulgaris was selected for therapy using the invention. Valrubicin was prepared as a gel (ref ex. 6) at a concentration of 1% (weight/weight) and was applied to the affected skin once daily. The patient was monitored for improvement in their manifestations of psoriasis. […] A patient having dermal manifestations of psoriasis vulgaris was selected for therapy using the invention. Valrubicin was prepared as a solution (ref. ex 5) at a concentration of 2.0% (weight/weight) and was applied to the affected skin twice daily. The patient was monitored for improvement in their manifestations of psoriasis. […] A patient having dermal manifestations of psoriasis vulgaris was selected for therapy using the invention. Valrubicin was prepared as a solution (ref. ex 5) at a concentration of 2.0 (weight/weight) and was applied to the affected skin twice a week. The patient was monitored for improvement in their manifestations of psoriasis. […] A patient having dermal manifestations of psoriasis vulgaris was selected for therapy using the invention. Valrubicin was prepared as a solution (ref. ex 5) at a concentration of 2.0% (weight/weight) and was applied to the affected skin once a week. The patient was monitored for improvement in their manifestations of psoriasis.

For data set [2] the following is noted: 40 mg/ml intravesical instillation of two hours, 6 times once a week; cited from earlier work.
The conditions of data set [3]: compared to other anthracyclines; cited from earlier work.
A further data set concerns normal dermal epithelium. As to conditions: histopathological animal experiments; cited from earlier work.
The conditions of data set [4]: concentration similar to that used in treatment of bladder cancer; cited from earlier work.
For data set [5] the following is noted: in vivo; cited from earlier work.
For data set [6] the following is noted: paravenous injection; cited from earlier work.

In the case of `COc1cccc2c1C(=O)c1c(O)c3c(c(O)c1C2=O)C[C@@](O)(C(=O)CO)C[C@@H]3O[C@H]1C[C@H](N)[C@H](O)[C@H](C)O1` [Doxorubicin], the “DNA Synthesis inhibition” value in the data set with DNA Synthesis is “+++ (slow)”. In addition, in the data set on RNA Synthesis, the “RNA Synthesis inhibition” value is “+ (slow)”. Further, in data set [1], the In vivo elimination result is listed as “Slow” and the In vivo metabolism result is “Minimal”.

Take `CCCCC(=O)OCC(=O)[C@]1(O)Cc2c(O)c3c(c(O)c2[C@@H](O[C@H]2C[C@H](NC(=O)C(F)(F)F)[C@H](O)[C@H](C)O2)C1)C(=O)c1c(OC)cccc1C3=O` [Valrubicin, N-trifluoroacetyladriamycin-14-valerate]: the “Skin lesions of psoriasis” value with psoriasis vulgaris (gel (ex. 6) 1% w/w, once daily) is on record as “skin lesions had subsided”; in the data set on psoriasis vulgaris (solution (ex. 5) 2.0% w/w, once a week) it was “skin lesions had subsided”; in the data set on psoriasis vulgaris (solution (ex. 5) 2% w/w, once daily), “skin lesions had subsided”; in the data set on psoriasis vulgaris (solution (ex. 5) 2.0% w/w, twice daily) it was “skin lesions had subsided”; with psoriasis vulgaris (solution (ex. 5) 2.0 (weight/weight), twice a week) it was “skin lesions had subsided”; in the data set on psoriasis vulgaris (solution (ex. 8) 0.5% w/w, once daily), “skin lesions had subsided”. For the same compound, in the data set with DNA Synthesis, the “DNA Synthesis inhibition” value is recorded as “+++ (rapid)”. For the same compound, the “RNA Synthesis inhibition” value in the data set with RNA Synthesis is listed as “+++ (rapid)”. Moreover, the In vivo elimination entry in data set [1] is “rapid”. Further, the In vivo metabolism result in data set [1] is recorded as “Extensive”. For the same compound, the “Depth into the epithelium of the bladder at which an effective concentration is found” value in data set [2] is listed as 1800 μm. In addition, the Systemic uptake entry in data set [2] is “does not result in systemic uptake”. For the same compound, the Lipophilicity entry in data set [3] is “very lipophilic”. Moreover, in the data set on normal dermal epithelium, the “Effect on normal dermal epithelium” value is “does not affect normal dermal epithelium”. In [4], the “Irritation of skin and eyes” value is on record as “mild to no irritation”. Moreover, the “Cardiotoxicity and haematological toxicity versus other anthracyclines” value in data set [5] was “less cardiotoxic and haematologically toxic”.

For the compound `COc1cccc2c1C(=O)c1c(O)c3c(c(O)c1C2=O)C[C@@](O)(C(=O)CO)C[C@@H]3O[C@H]1C[C@H](N)[C@@H](O)[C@H](C)O1` [epirubicin], the Local tissue toxicity result in data set [6] is reported as “severe necrosis”.
